Assay results published in US6121274A, “Dihydrobenzofurane” (Byk Gulden Lomberg Chemische Fabrik GmbH, priority 1994, dated 2000).

System: PDE IV
Assay: Inhibition of PDE IV activity (Bauer and Schwabe method adapted to microtiter plates)
Type: biochemical
Settings: Table A; two-step PDE / 5'-nucleotidase assay, ion-exchange separation

Row | SMILES | Inhibition of PDE IV activity, -log IC50
1 | COc1ccc(C(=O)Nc2c(Cl)cncc2Cl)c2c1OC(C)(C)C2 [Compound 1, 2,3-Dihydro-2,2-dimethyl-7-methoxybenzofuran-4-carboxylic acid-N-3,5-dichloro-4-pyridylamide] | 8.47
2 | COc1ccc(C(=O)Nc2c(Cl)cncc2Cl)c2c1OC1(CCCC1)C2 [Compound 2, 2,3-Dihydro-7-methoxybenzofuran-2-spiro-1'-cyclopentan-4-carboxylic acid-N-3,5-dichloro-4-pyridylamide] | 9.42
3 | O=C(Nc1c(Cl)cncc1Cl)c1ccc(OC(F)F)c2c1CC1(CCCC1)O2 [Compound 3, 7-Difluoromethoxy-2,3-dihydrobenzofuran-2-spiro-1'-cyclopentane-4-carboxylic acid-N-3,5-dichloro-4-pyridylamide] | 9.87
4 | COc1ccc(C(=O)Nc2c(Cl)cncc2Cl)c2c1OC1(CCCCC1)C2 [Compound 4, 2,3-dihydro-7-methoxybenzofuran-2-spiro-1'-cyclohexane-4-carboxylic acid-N-3,5-dichloro-4-pyridylamide] | 9.09
5 | COc1ccc(C(=O)Nc2c(Cl)cncc2Cl)c2c1OC1(CCOCC1)C2 [Compound 5, 2,3-Dihydro-7-methoxybenzofuran-2-spiro-1'-(4'-oxacyclohexane)-4-carboxylic acid-N-3,5-dichloro-4-pyridylamide] | 8.57
6 | CCC1(CC)Cc2c(C(=O)Nc3c(Cl)cncc3Cl)ccc(OC)c2O1 [Compound 6, 2,2-Diethyl-2,3-dihydro-7-methoxybenzofuran-4-carboxylic acid-N-3,5-dichloro-4-pyridylamide] | 8.63
7 | COc1ccc(C(=O)Nc2c(Cl)cccc2Cl)c2c1OC1(CCCC1)C2 [Compound 7, 2,3-Dihydro-7-methoxybenzofuran-2-spiro-1'-cyclopentane-4-carboxylic acid-2,6-dichloroanilide] | 8.57
8 | COc1ccc(C(=O)Nc2c(F)cccc2F)c2c1OC1(CCCC1)C2 [Compound 8, 2,3-Dihydro-7-methoxybenzofuran-2-spiro-1'-cyclopentane-4-carboxylic acid-2,6-difluoroanilide] | 8.42
